In article PMC10778626, “Efficacy of Novel Quaternary Ammonium and Phosphonium Salts Differing in Cation Type and Alkyl Chain Length against Antibiotic-Resistant Staphylococcus aureus” (International Journal of Molecular Sciences, 2023):
Converted amounts (≈) assume the structure as drawn. Read-outs that look alike come from different tables or passages of the source.

Key:
S. aureus CECT 976 [1] = experiment: MIC/MBC by broth microdilution, S. aureus CECT 976; format: cell-based; settings: Staphylococcus aureus, CECT976; for MIC: 24 h, 37 °C, read-out: MIC
Protocol: (§1) The minimum inhibitory concentration (MIC) and minimum bactericidal concentration (MBC) values of all QHSs were determined by the broth microdilution method, according to the approved M7-A7 (aerobes) standards of the Clinical and Laboratory Standards Institute (CLSI) guidelines. Overnight cell cultures of S. aureus, in the exponential phase of growth, were adjusted to an optical density (OD) of 0.132 ± 0.02 (λ = 600 nm). Then, a volume of 180 µL of the cell suspension was added to sterile, flat, clear-bottomed polystyrene (PS) 96-well microtiter plates (VWR—Radnor, PA, USA), already containing 20 µL of each QHS under study at concentrations ranging from 0.0625 to 64 µg/mL. In the end, the volume of each compound never exceeded 10% (v/v) of the well volume. Microtiter plates were then incubated for 24 h at 37 °C under agitation (150 rpm; INCU-Line IL 150R incubator). Absorbance measurements were performed at the beginning (t = 0 h) and end (t = 24 h) of the incubation period using a microtiter plate absorbance reader (BMG LABTECH FLUOstar Omega). Bacterial suspensions with DMSO and without QHSs were used as negative controls. […] All tests were performed with six replicates and a minimum of three independent repeats.
Plates were incubated at 37 °C for 24 h, and growth was visually inspected. […] All tests were performed in triplicate, and with a minimum of three independent repeats.

[2] = Chromatographic hydrophobicity index (CHI) by UHPLC; format: physicochemical; settings: for CHI: LC/UV at pH 2.6, calculated from retention time with the calibration line; for chromatographic logP: back-calculated from CHI at pH 2.6: CHI LogP = 0.047 × CHI + 0.36 × HBC − 1.10
Protocol: The chromatographic hydrophobicity index (CHI) values were determined using the retention times (tR) of the samples under study and of a mixture of standard compounds on a UHPLC NEXERA SERIES LC-40 with a Luna C18 (2) column of 150 × 4.6 mm, 5 μm (Phenomenex, Torrance, CA, USA). Stock solutions of the test compounds (10 mM) were prepared in dimethyl sulfoxide (DMSO, 99.9%; Carlo Erba) and diluted in acetonitrile/water (1:1) to obtain a final concentration of 500 μM. The mobile phase A was 1.0% (v/v) aqueous acetic acid solution (pH = 2.6), and the mobile phase B was acetonitrile. The following gradient programme was applied: 1–7 min 0–100% B, 7–17 min 100% B, 17–19 min 100–0% B, 1 mL/min flow; rt, injection volume 40 μL.
A calibration line was obtained using a mixture of the following compounds: benzimidazole, theophylline, paracetamol, caffeine, colchicine, carbamazepine, indole, propiophenone, butyrophenone, valerophenone, and heptanophenone (Table S1 and Figure S50, Supplementary Materials). The experimental CHI values of the compounds tested at pH 2.6 were then converted to the logarithm of octanol/water partition coefficient (CHI LogP) values using Equation (1). CHI LogP = 0.047 × CHI + 0.36 × HBC − 1.10 (1) where HBC is the hydrogen bond donor count.

S. aureus XU212 = experiment: MIC/MBC by broth microdilution, S. aureus XU212; format: cell-based; settings: Staphylococcus aureus
Protocol: (§2) S. aureus CECT 976, obtained from the Spanish Type Culture Collection, was used as the standard susceptibility testing control strain. This strain has been previously employed in diverse studies to validate the antimicrobial effects of novel molecules. Additional antibiotic-resistant strains, S. aureus XU212, SA1199B, and RN4220, generously provided by S. Gibbons (University College London, London, UK) were tested. […] The SA1199B strain is characterized by its resistance to fluoroquinolones due to the overexpression of the NorA efflux pump and its ciprofloxacin resistance.
as §1
(§3) Plates were incubated at 37 °C for 24 h, and growth was visually inspected. The MBC was determined as the lowest concentration of compound in which the total inhibition of growth on solid medium was observed (no colony forming units (CFUs) were detected). All tests were performed in triplicate, and with a minimum of three independent repeats.

S. aureus SA1199B = experiment: MIC/MBC by broth microdilution, S. aureus SA1199B; format: cell-based; settings: Staphylococcus aureus
Protocol: as §2, §1, §3

S. aureus CECT 976 [3] = experiment: Quantitative suspension test, dose-response against planktonic bacteria; format: cell-based, Staphylococcus aureus; settings: S. aureus CECT 976; 30 min exposure
Protocol: A quantitative suspension test to explore the dose–response relationships of QHSs by evaluating bactericidal activity was performed. For this method, overnight grown cultures were centrifuged (VWR Mega Star 600R) at 3772× g for 10 min and washed twice with phosphate-buffered saline (PBS; 1.44 g/L of […]—Labkem, Barcelona, Spain; 8 g/L of sodium chloride, 0.2 g/L of potassium chloride, and 0.24 g/L of potassium dihydrogen phosphate—VWR, Leuven, Belgium) at pH 7.4. The collected cells were resuspended in PBS and adjusted to an optical density (OD) of 0.132 ± 0.02 (λ = 600 nm). Afterwards, 100 µL of this cell suspension was aseptically transferred to 800 µL of DW and allowed to stand for 2 min. To this mixture, 100 µL of each QHS solution diluted in DMSO at the desired concentration was added. The dose–response evaluation took place for 30 min at 37 °C. In the case of the negative control (untreated cells), the QHS solution was replaced by an equal volume of DMSO or DW. At the end of the contact time, QHS neutralization was performed through the dilution-neutralization method using a universal neutralizer (1 g/L L-histidine (Merck—Tokyo, Japan), 3 g/L lecithin (Alfa Aesar—Karlsruhe, Germany), 5 g/L sodium thiosulphate (Labkem—Barcelona, Spain), 30 g/L saponin (VWR Chemicals—Leuven, Belgium), and 30 g/L polysorbate 80 (VWR Chemicals—Le Havre, France) in 0.0025 M phosphate buffer). For neutralization, the test blend (100 µL) was added to 800 µL sterile aqueous neutralizing solution and 100 µL of DW. The mixture was gently agitated and allowed to stand for 10 min, after which serial dilutions (up to 10^−5) in sterile saline solution (0.85% w/v NaCl) were prepared. Then, 10 µL of each serial dilution was plated into Petri dishes containing PCA by the drop-plating method. The plates were allowed to set, then inverted and placed in an incubator at 37 °C for 24 h. The surviving cells on the QHS neutralized samples were determined by CFU counting on each plate, ensuring the counting of dilution plates that gave between 10 and 100 CFUs. The antibacterial activity was evaluated by quantification of logarithmic reduction (log CFU/mL), according to Equation (2). log CFU/mL reduction = log (X) − log (X0), (2) where X0 and X are the counts of CFU/mL before (untreated control cells) and after quaternary salt exposure, respectively.
The QHS concentrations chosen for conducting the dose–response tests comprise of the MBC, which causes the complete reduction of planktonic cells, as well as lower concentrations. Specifically, compound 1e was evaluated at concentrations of 0.25, 0.5, 0.75, 1, 2, 4, 8, and 16 µg/mL, compound 7e at concentrations of 1, 2, 3.2, 3.5, 4, 8, and 16 µg/mL, compound 5e at concentrations of 0.5, 1, 1.3, 1.6, 2, 4, and 8 µg/mL, and compound 3e at concentrations of 0.5, 0.75, 1, 1.3, 1.6, 2, 4, and 8 µg/mL. In the case of compounds 2e, 6e, and 4e, concentrations tested were 0.5, 1, 1.6, 2, 4, and 8 µg/mL. All tests were performed in duplicate, and with a minimum of three independent repeats.
The Chick–Watson mathematical model, provided in Equation (3), is considered an adequate approach to validate the kinetics of dose–response data. log X/X0 = − Kdis C^n t (3) where X0 and X are the counts of CFU/mL before and after quaternary salt exposure, respectively; Kdis is a killing rate coefficient ((mL.µg^−1)^n.min^−1); C is the quaternary salt concentration (µg.mL^−1); n is the concentration exponent and t is the exposure time (min). The concentration dependence of killing (n) was determined using a toolbox for linear regression in GraphPad Prism (version 8.4.0, GraphPad Software, La Jolla, CA, USA). The quality of the model was evaluated through the regression coefficient (R^2).

HepG2 cells = experiment: Cytotoxicity by neutral red (NR) uptake; format: cell-based, human; settings: HepG2, 24 h
Protocol: The evaluation of the cytotoxicity effects of QHSs was performed using hepatocellular carcinoma (HepG2) cells. […] The cells used for all experiments were taken between the 9th and 13th passages, to avoid phenotypic changes.
The cytotoxicity profile of the compounds under study was evaluated in HepG2 cells (2.5 × 10^5 cells/mL) seeded in 96-well plates. […] Control experiments were performed for viability endpoints by adding the vehicle (medium with 0.1% DMSO) instead of the compound solution.
In the NR uptake assay, following a 24 h incubation period with the test compounds, the cell culture medium was aspirated, and fresh medium containing 150 µL of the dye (at a concentration of […]) was added to the cells. […] After incubation, the cell culture medium was discarded, and a mixture of absolute ethanol and distilled water (1:1) containing 5% acetic acid was added to extract the dye accumulated within the lysosomes of viable cells. The absorbance at 540 nm was measured using a microplate reader (Synergy HTX Multi-Mode Reader—BioTek, Winooski, VT, USA).
For all assays, results are expressed as a percentage of the control (nontreated cells), taken as 100%.

S. aureus RN4220 = experiment: MIC/MBC by broth microdilution, S. aureus RN4220; format: cell-based; settings: Staphylococcus aureus
Protocol: as §2, §1, §3

[4] = parameters: method as in earlier work; settings: standard mixture for the calibration line; cited from earlier work
S. aureus CECT 976 [5] = system: S. aureus CECT 976; parameters: method as in Abreu et al. [44]; settings: antibiotics, broth microdilution, ref Abreu et al. [44]; cited from earlier work
[6] = S. aureus CECT 976, broth microdilution
[7] = S. aureus CECT 976, broth microdilution, plated on PCA, read-out: MBC

CCCCCCCCCCCCCCCC[n+]1ccccc1.[Br-] [Compound 6f, 1-Hexadecylpyridin-1-ium bromide]
MBC (S. aureus CECT 976 [1]): 8 µg/mL | CHI [2]: 94.47 | chromatographic logP [2]: 3.34

CCCCCCCCCCCCCCCCCC[n+]1ccccc1.[Br-] [Compound 6g, 1-Octadecylpyridin-1-ium bromide]
MIC (S. aureus CECT 976 [1]; [6]): 8 µg/mL | MBC (S. aureus CECT 976 [1]; [7]): 16 µg/mL | CHI [2]: 108.1 | chromatographic logP [2]: 3.98

CCCCCCCCCCCCCC[N+](CC)(CC)CC.[Br-] [Compound 7e, N,N,N-Triethyltetradecan-1-aminium bromide]
MBC (S. aureus XU212): 32 µg/mL | MIC (S. aureus XU212): 32 µg/mL | MBC (S. aureus SA1199B): 32 µg/mL | MIC (S. aureus SA1199B): 16 µg/mL | MIC (S. aureus CECT 976 [1]; [6]): 2 µg/mL | MBC (S. aureus CECT 976 [1]; [7]): 16 µg/mL | concentration inducing reductions in S. aureus log CFU/mL > 5 (S. aureus CECT 976 [3]): 3.4 μg/mL | NR uptake (lysosomal activity), % of control (HepG2 cells; 2 µg/mL): 86.24 ± 1.502% (****) | NR uptake (lysosomal activity), % of control (HepG2 cells; 16 µg/mL): 18.51 ± 2.592% (****) | NR uptake (lysosomal activity), % of control (HepG2 cells; 32 µg/mL): 16.59 ± 4.378% (****) | MBC (S. aureus RN4220): 8 µg/mL | MIC (S. aureus RN4220): 4 µg/mL

CCCCCCC(=O)c1ccccc1 [Heptanophenone]
CHI0 pH 2.6 [4]: 112.1

c1ccc2[nH]ccc2c1 [Indole]
CHI0 pH 2.6 [4]: 72.10

CC(=O)Nc1ccc(O)cc1 [Paracetamol]
CHI0 pH 2.6 [4]: 18.77

CCC(=O)c1ccccc1 [Propiophenone]
CHI0 pH 2.6 [4]: 77.40

Cn1c(=O)c2[nH]cnc2n(C)c1=O [Theophylline]
CHI0 pH 2.6 [4]: 17.90

CCCCC(=O)c1ccccc1 [Valerophenone]
CHI0 pH 2.6 [4]: 96.40

CC1(C)S[C@@H]2[C@H](NC(=O)[C@H](N)c3ccccc3)C(=O)N2[C@H]1C(=O)O [[AMP], ampicillin]
MIC (S. aureus CECT 976 [5]): 1.5 µg/mL (≈ 4.29 µM)

Cc1onc(-c2ccccc2)c1C(=O)N[C@@H]1C(=O)N2[C@@H]1SC(C)(C)[C@@H]2C(=O)O [[OXA], oxacillin]
MIC (S. aureus CECT 976 [5]): 0.48 µg/mL (≈ 1.2 µM)
